From ChEMBL document CHEMBL1201862, “PubChem BioAssay data set” (2004) come the findings set out here.

Test systems include OVCAR-3; MOLT-4; U-251; SK-OV-3; MCF7; UACC-62; KM12; SNB-19; SF-295; SF-539; OVCAR-8; HT-29; IGROV-1; OVCAR-5; DMS-114; SF-268; MDA-MB-231; M14; MDA-MB-435; HL-60.
Experiment in all cases: DTP human tumour cell line panel, 48 h

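Following 48 hours of exposure in 96-well plates, responses at five concentrations were used to interpolate endpoints linearly. The concentration for 50% growth inhibition is given as GI50.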 Active and inactive are the calls of the source. Rule as the data show it: active = GI50 up to about 1.1 µM and inactive = higher.

For orientation: GI50 means the concentration giving 50% growth inhibition. Consider `O=C(O)/C=C/c1c[nH]cn1`, for which the GI50 in the test on OVCAR-3, with MOLT-4, in the test with U-251, in the test on SK-OV-3, in the test on MCF7 and in the test with UACC-62 was > 500 µM (inactive) throughout. Further, the GI50 in the test with KM12, in the test on SNB-19, in the test with SF-295, in the test with SF-539, in the test with OVCAR-8 and with HT-29 was > 500 µM (inactive) throughout. Further, the GI50 in the test on IGROV-1, in the test with OVCAR-5 and in the test on DMS-114 was > 500 µM (inactive) in each case.
Turning to `C/C(=C\c1ccc(Cl)cc1)C(C)(C)C(=O)O`, the GI50 with OVCAR-3, in the test on MOLT-4, in the test on U-251, in the test with SK-OV-3, in the test with SF-268 and in the test on MCF7 was > 100 µM (inactive) throughout. The GI50 in the test with UACC-62, with MDA-MB-231, with KM12, in the test with M14, in the test on SNB-19 and in the test with SF-295 was > 100 µM (inactive) each time. Moreover, the GI50 in the test on SF-539, in the test on OVCAR-8, in the test on MDA-MB-435, with HL-60, in the test with HT-29 and with IGROV-1 was > 100 µM (inactive) throughout. Moreover, the GI50 with OVCAR-5 is > 100 µM (inactive).
In the case of `CN(CCO)CCC1COc2ccccc2O1` (stereo not given), the GI50 in the test on OVCAR-3, in the test with MOLT-4, with U-251, with SK-OV-3, with SF-268 and in the test on MCF7 was > 10 µM (inactive) throughout. Moreover, the GI50 in the test with UACC-62, in the test on MDA-MB-231, in the test on KM12, with M14, in the test on SNB-19 and in the test on SF-295 was > 10 µM (inactive) in each case. The GI50 with SF-539, in the test on OVCAR-8, in the test on MDA-MB-435, with HL-60, in the test on HT-29 and in the test with IGROV-1 was > 10 µM (inactive) each time. The GI50 in the test with OVCAR-5 is > 10 µM (inactive).
For the compound `COc1ccc(-c2nnc3c4ccccc4sn23)cc1`, the GI50 is 17.1 µM (inactive) in the test with OVCAR-3; 15.3 µM (inactive) with MOLT-4; 23.4 µM (inactive) with U-251; 22.5 µM (inactive) with SF-268; 35.4 µM (inactive) with UACC-62; 19.3 µM (inactive) in the test on KM12. For the same compound, the GI50 was 26.4 µM (inactive) with M14; 29.9 µM (inactive) with SNB-19; 32.7 µM (inactive) in the test with SF-539; 32.5 µM (inactive) in the test with OVCAR-8; 15.9 µM (inactive) with HL-60; 26.8 µM (inactive) in the test on HT-29. For the same compound, the figures for the GI50 with IGROV-1, with OVCAR-5 and in the test with DMS-114 were 19.8 µM (inactive), > 100 µM (inactive) and 17.1 µM (inactive), respectively.
Turning to `O=C1C[C@@H](C(=O)OCc2ccccc2)NC(=O)C[C@@H](C(=O)OCc2ccccc2)NC(=O)C[C@@H](C(=O)OCc2ccccc2)N1`, the GI50 in the test on OVCAR-3 is > 100 µM (inactive); with MOLT-4, 4.15 µM (inactive); with U-251 it was 12.1 µM (inactive); in the test on SK-OV-3 it was 20.8 µM (inactive); in the test with SF-268, 15.2 µM (inactive); in the test with MCF7, > 100 µM (inactive). Besides, the GI50 in the test on UACC-62 was 64.7 µM (inactive); in the test on MDA-MB-231 it was 14 µM (inactive); in the test with KM12, > 100 µM (inactive); in the test with M14, > 92.9 µM (inactive); with SNB-19, 45.5 µM (inactive); in the test on SF-295, 20 µM (inactive). The GI50 is 18.5 µM (inactive) in the test with SF-539; > 100 µM (inactive) with OVCAR-8; > 100 µM (inactive) in the test with MDA-MB-435; 0.659 µM (active) in the test on HL-60; > 100 µM (inactive) with HT-29; 98.6 µM (inactive) in the test with IGROV-1. Besides, the GI50 in the test with OVCAR-5 was > 100 µM (inactive).
Turning to `Clc1ncc(C(Cl)(Cl)Cl)nc1-c1ccccc1`, the GI50 in the test with OVCAR-3 was 1.72 µM (inactive); in the test with MOLT-4 it was 4.75 µM (inactive); in the test with U-251 it was 1.84 µM (inactive); with SK-OV-3, 11.9 µM (inactive); with SF-268, 2.19 µM (inactive); in the test with MCF7 it was 1.68 µM (inactive). The GI50 with UACC-62 was 2.56 µM (inactive); with MDA-MB-231, 1.97 µM (inactive); with KM12, 1.82 µM (inactive); with M14, 2.23 µM (inactive); with SNB-19 it was 1.69 µM (inactive); with SF-295, 3.63 µM (inactive). Further, the GI50 in the test with SF-539 is 2.63 µM (inactive); in the test on OVCAR-8, 2.57 µM (inactive); in the test on MDA-MB-435 it was 1.77 µM (inactive); with HL-60, 2.7 µM (inactive); in the test on HT-29, 1.82 µM (inactive); in the test on IGROV-1, 2.4 µM (inactive). Also, the GI50 in the test on OVCAR-5 was 16.1 µM (inactive).
Turning to `N#CSCC1COc2ccccc2O1` (stereo not given), the GI50 is > 10 µM (inactive) in the test on OVCAR-3; 3.3 µM (inactive) in the test with MOLT-4; > 10 µM (inactive) in the test on U-251; > 10 µM (inactive) with SK-OV-3; > 10 µM (inactive) in the test on SF-268; > 10 µM (inactive) in the test with MCF7. The GI50 with UACC-62 is > 10 µM (inactive); with MDA-MB-231, > 10 µM (inactive); in the test with KM12 it was > 10 µM (inactive); in the test on M14, 8.39 µM (inactive); with SNB-19, > 10 µM (inactive); in the test with SF-295 it was > 10 µM (inactive). In addition, the GI50 was > 10 µM (inactive) with SF-539; > 10 µM (inactive) with OVCAR-8; > 10 µM (inactive) with MDA-MB-435; 2.55 µM (inactive) in the test with HL-60; > 10 µM (inactive) in the test on HT-29; > 10 µM (inactive) in the test on IGROV-1. Moreover, the GI50 with OVCAR-5 is > 10 µM (inactive).
For the compound `O=C1C2C(C(=O)N1OS(=O)(=O)c1ccccc1)N(Cc1ccccc1)C(=O)N2Cc1ccccc1` (stereo not given), the GI50 in the test on OVCAR-3, in the test on MOLT-4, in the test with U-251, in the test on SK-OV-3, with SF-268 and in the test with UACC-62 was > 100 µM (inactive) in each case. Also, the GI50 in the test on KM12, in the test with M14, in the test with SNB-19, in the test with SF-295, with SF-539 and in the test on HL-60 was > 100 µM (inactive) each time. In addition, the GI50 in the test with HT-29, in the test with IGROV-1, in the test with OVCAR-5 and in the test on DMS-114 was > 100 µM (inactive) in each case.
Regarding `CCCC(=O)OC[n+]1ccc2c(C)c3[nH]c4ccc(OC)cc4c3c(C)c2c1`, the GI50 with OVCAR-3 was 0.873 µM (active); with MOLT-4 it was 0.0289 µM (active); with U-251, 0.391 µM (active); with SK-OV-3, 1.51 µM (inactive); in the test with SF-268 it was 0.313 µM (active); with UACC-62, 1.06 µM (active). In addition, the GI50 was 0.337 µM (active) in the test on KM12; 0.708 µM (active) in the test with M14; 0.581 µM (active) in the test with SF-295; 0.305 µM (active) with SF-539; 0.092 µM (active) in the test with OVCAR-8; 0.259 µM (active) in the test with HL-60. Besides, the GI50 with HT-29 was 0.0931 µM (active); in the test with IGROV-1, 0.625 µM (active); in the test on OVCAR-5, 0.675 µM (active); in the test with DMS-114 it was 0.47 µM (active).
Turning to `CC(=O)N(CCN1C(=O)c2ccccc2C1=O)CCN1C(=O)c2ccccc2C1=O`, the GI50 in the test on OVCAR-3, in the test with MOLT-4, in the test on U-251, in the test on SK-OV-3, in the test on SF-268 and in the test on UACC-62 was > 100 µM (inactive) each time. Also, the GI50 in the test with KM12, with M14, with SNB-19, in the test on SF-295, with OVCAR-8 and with HL-60 was > 100 µM (inactive) in each case. In addition, the GI50 in the test with DMS-114 was > 100 µM (inactive).
Take `COc1c(Cl)cc(S(=O)O)cc1Cl`: the GI50 in the test on OVCAR-3, in the test with MOLT-4, in the test on U-251, in the test with SK-OV-3, with SF-268 and in the test on UACC-62 was > 100 µM (inactive) throughout. The GI50 in the test with KM12, in the test with M14, in the test on SNB-19, in the test with SF-539, in the test on HL-60 and with HT-29 was > 100 µM (inactive) in each case. The GI50 in the test on OVCAR-5 and in the test with DMS-114 was > 100 µM (inactive) each time.
As to `COc1cc(C(C)c2cc3c(cc2OCCO)OCO3)cc(OC)c1OC` (stereo not given), the GI50 with OVCAR-3 is 0.538 µM (active); in the test with MOLT-4, 0.935 µM (active); with U-251 it was 2.48 µM (inactive); with SK-OV-3, 2.19 µM (inactive); with SF-268 it was 3.9 µM (inactive); in the test on UACC-62, 0.601 µM (active). Further, the GI50 was 1.18 µM (inactive) with M14; 3.93 µM (inactive) in the test on SNB-19; 0.413 µM (active) in the test on SF-295; 1.6 µM (inactive) in the test with SF-539; 3.27 µM (inactive) in the test with OVCAR-8; 0.313 µM (active) with HL-60. For the same compound, the concentration for 50% growth inhibition (GI50) with HT-29 was 0.436 µM (active); in the test with IGROV-1 it was 0.832 µM (active); with OVCAR-5 it was > 100 µM (inactive); in the test with DMS-114, 0.562 µM (active).
